{
  "source": "paper PMC8486263",
  "about": "(RSC Advances, 2020)",
  "key": {"HIV-1 (strain LAI)": {"tested_on": "HIV-1 (strain LAI)", "assay": "microbe, parasite or virus in culture", "assay_type": "cell-based", "conditions": "Human immunodeficiency virus 1, PBMC, 144 h; HIV-1 LAI, MOI 0.1, PHA/IL-2 stimulated human PBM cells, 6 days; read-out: anti-HIV-1 EC50", "quoted_text": "The assay was performed as described previously,[23a,b] with some modifications described elsewhere.[23c] […] Supernatants were harvested, and HIV-1 RT was quantified. Median effective concentrations (EC50) were determined using described method.[23d]"}, "HBV": {"tested_on": "HBV", "assay": "Antiviral assay against HBV in HepAD38 cells, real-time PCR for HBV DNA", "assay_type": "cell-based", "conditions": "Hepatitis B virus, 168 h", "method": "HepAD38 cells[24] were seeded at 50 000 cells per well in collagen-coated 96-well plates. Test compounds or 3TC (control) were added to HepAD38 cells to a final concentration of 10 μM. Real-time PCR for HBV DNA lasted 7 days. On day 7, total DNA was purified from supernatant using commercially available kit (DNeasy 96 Blood & Tissue kit, Qiagen). The HBV DNA was amplified in a real-time PCR assay using LightCycler 480 (Roche) as described elsewhere.[23c] All samples were tested in triplicate. Analysis: the concentration of compound that inhibited HBV DNA replication by 50% (EC50) was determined by linear regression."}, "in vitro": {"assay": "in vitro", "conditions": "African green monkey", "method": "These assays were performed in human PBM, T lymphoblast CEM-CCRF (CEM), African green monkey kidney (Vero) or human liver (HepG2) cells. Results represent means from triplicate wells.\nThese were performed in […] (PBM), T lymphoblast CEM-CCRF (CEM), African green monkey kidney (Vero) or human liver (HepG2) cells via MTT assay using the CellTiter 96®. Non-Radioactive Cell Proliferation (Promega) kit as previously described.[23c] Cytotoxicity was expressed as the concentration of test compounds that inhibited cell proliferation by 50% (IC50) and calculated using the Chou and Talalay method.[25]"}},
  "data": [
    {"smiles": "Cc1cn([C@H]2C[C@H](N=[N+]=[N-])[C@@H](CO)O2)c(=O)[nH]c1=O", "note": "[AZT, 3′-azido-3′-deoxythymidine]", "values": [
      {"measurement": "EC50", "setting": "HIV-1 (strain LAI)", "value": 6, "unit": "nM"}
    ]},
    {"smiles": "Nc1ccn([C@@H]2CS[C@H](CO)O2)c(=O)n1", "note": "[Lamivudine]", "values": [
      {"measurement": "EC50", "setting": "HBV; 7 days, HBV DNA in supernatant, read-out: anti-HBV EC50", "value": "< 10000", "unit": "nM"},
      {"measurement": "inhibition at 10 µM", "setting": "HBV; at 10 μM, day 7", "value": 97, "unit": "%"}
    ]},
    {"smiles": "C[C@@H]1C[C@@H]([C@H](O)CC2CC(=O)NC(=O)C2)C(=O)[C@@H](C)C1", "note": "[cycloheximide]", "values": [
      {"measurement": "IC50", "setting": "in vitro", "value": 500, "unit": "nM"}
    ]}
  ]
}
